pIC50: −log10 of the molar value. Read-outs that look alike come from different tables or passages of the source.

Experiment [1] deals with EGFR ins SVD (insertion of SVD between D770 and N771) (Homo sapiens, UniProt P00533, INS767SVD). The experiment can be described thus: Exon 20-Mutant-EGFR(D770_N771insSVD) kinase assay (TR-FRET). Format: biochemical. In general terms: TR-FRET usually uses a lanthanide donor and a delayed reading to cut background.
The target in experiment [2] is EGFR ins ASV (insertion of ASV between V769 and D770). Nature of the experiment: Exon 20-Mutant-EGFR(V769_D770insASV) kinase assay (TR-FRET). It is filed as biochemical, human. The settings on record: 2 mM ATP.
Protocol: Exon 20-Mutant-EGFR(V769_D770insASV) Kinase Assay
Inhibitory activity of compounds of the present invention against an Epidermal Growth Factor Receptor (EGFR) with an insertion of the amino acids sequence ASV between V769 and D770 was quantified employing the TR-FRET based kinase activity assay as described in the following paragraphs.
For the assay 50 nl of a 100-fold concentrated solution of the test compound in DMSO was pipetted into either a black low volume 384well microtiter plate or a black 1536 well microtiter plate (both Greiner Bio-One, Frickenhausen, Germany), 2 μl of a solution of EGFR in aqueous assay buffer [50 mM Hepes pH 7.0, 10 mM MgCl2, 1 mM dithiothreitol, 0.5 mM EGTA, 0.3 mM activated sodium ortho-vanadate, 0.005% (w/v) bovine serum albumin, 0.005% (v/v) Tween-20] were added and the mixture was incubated for 15 min at 22° C. to allow pre binding of the test compounds to the enzyme before the start of the kinase reaction. […] The concentration of EGFR was adjusted depending of the activity of the enzyme lot and was chosen appropriate to have the assay in the linear range, typical concentration was 2.5 pg/μl. The reaction was stopped by the addition of 3 μl of a solution of HTRF detection reagents (83.3 nM streptavidine-XL665 [Cisbio Bioassays, Codolet, France] and 1.67 nM PT66-Tb-Cryptate, an terbium-cryptate labelled anti-phospho-tyrosine antibody from Cisbio Bioassays [instead of the PT66 Tb cryptate PT66 Eu Chelate from Perkin Elmer can also be used]) in an aqueous EDTA-solution (133.3 mM EDTA, 0.2% (w/v) bovine serum albumin in 50 mM HEPES pH 7.5).
The resulting mixture was incubated 1 h at 22° C. to allow the binding of the biotinylated phosphorylated peptide to the streptavidine-XL665 and the PT66-Tb-Cryptate. Subsequently the amount of phosphorylated substrate was evaluated by measurement of the resonance energy transfer from the PT66-Tb-Cryptate to the streptavidine-XL665.
Another experiment concerns the target Bub1 (Homo sapiens (Human), UniProt O43683). Nature of the experiment: Bub1 kinase assay (TR-FRET, 10 μM ATP). It is filed as biochemical. Conditions: mean, read-out: Bub1 kinase assay IC50 [mol/l] (mean). The source says: Bub1-inhibitory activities of compounds described in the present invention were quantified using a time-resolved fluorescence energy transfer (TR-FRET) kinase assay which measures phosphorylation of the synthetic peptide Biotin-Ahx-[…]—SEQ ID NO: 5 (C-terminus in amide form), purchased from e.g. Biosyntan (Berlin, Germany) by the (recombinant) catalytic domain of human Bub1 (amino acids 704-1085), expressed in Hi5 insect cells with an N-terminal His6-tag (SEQ ID NO: 9) and purified by affinity-(Ni-NTA) and size exclusion chromatography.
In a typical assay 11 different concentrations of each compound (0.1 nM, 0.33 nM, 1.1 nM, 3.8 nM, 13 nM, 44 nM, 0.15 μM, 0.51 μM, 1.7 μM, 5.9 μM and 20 μM) were tested in duplicate within the same microtiter plate. To this end, 100-fold concentrated compound solutions (in DMSO) were previously prepared by serial dilution (1:3.4) of 2 mM stocks in a clear low volume 384-well source microtiter plate (Greiner Bio-One, Frickenhausen, Germany), from which 50 nl of compounds were transferred into a black low volume test microtiter plate from the same supplier. […] The resulting mixture (5 μl final volume) was incubated at 22° C. during 60 min., and the reaction was stopped by the addition of 5 μl of an aqueous EDTA-solution (50 mM EDTA, in 100 mM HEPES pH 7.5 and 0.2% (w/v) bovine serum albumin) which also contained the TR-FRET detection reagents (0.2 μM streptavidin-XL665 [Cisbio Bioassays, Codolet, France] and 1 nM anti-phosho-Serine antibody [Merck Millipore, cat. #35-002] and 0.4 nM LANCE EU-W1024 labeled anti-mouse IgG antibody [Perkin-Elmer, product no. AD0077, alternatively a Terbium-cryptate-labeled anti-mouse IgG antibody from Cisbio Bioassays can be used]). The stopped reaction mixture was further incubated 1 h at 22° C. in order to allow the formation of complexes between peptides and detection reagents. Subsequently, the amount of product was evaluated by measurement of the resonance energy transfer from the Eu-chelate-antibody complex recognizing the Phosphoserine residue to the streptavidin-XL665 bound to the biotin moiety of the peptide. To this end, the fluorescence emissions at 620 nm and 665 nm after excitation at 330-350 nm were measured in a TR-FRET plate reader, e.g. a Rubystar or Pherastar (both from BMG Labtechnologies, Offenburg, Germany) or a Viewlux (Perkin-Elmer) and the ratio of the emissions (665 nm/[…]) was taken as indicator for the amount of phosphorylated substrate. The data were normalised using two sets of control wells for high-(=enzyme reaction without inhibitor=0%=Minimum inhibition) and low-(=all assay components without enzyme=100%=Maximum inhibition) Bub1 activity. IC50 values were calculated by fitting the normalized inhibition data to a 4-parameter logistic equation (Minimum, Maximum, IC50, Hill; Y=Max+(Min−Max)/(1+(X/IC50)Hill)).

A further experiment concerns Ba/F3-EGFR-insSVD cells. Nature of the experiment: Proliferation assay in BA/F3 (ins SVD) cells (Cell Titer-Glo). The settings on record: Table 10, plated without EGF. It is filed as cell-based. Put shortly:
(§1)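 Ba/F3 cells stably expressing retrovirally transduced EGFR-WT or EGFR-insSVD; WT cells plated with 10 ng/mL EGF, insSVD cells without EGF. Compound exposure 48 h at 37° C; viability read by CellTiter-Glo luminescence.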
For orientation: ATP-based viability assays read luminescence as a measure of living cells.

Another experiment concerns Ba/F3-EGFR-WT cells. The experiment can be described thus: Proliferation assay in BA/F3 (wild type) cells (Cell Titer-Glo). Conditions: Table 10, plated with 10 ng/mL EGF. It is filed as cell-based. The method in brief: as §1
[3] abbreviates: 2 mM ATP, mean, read-out: EGFR ins SVD IC50 [mol/l] (mean).
Setting [4] is: Table 9, read-out: mutEGFR (D770_N771insSVD) kinase assay IC50.

Chain of EGFR ins SVD (insertion of SVD between D770 and N771) (P00533 with tags, fused parts or gaps INS767SVD limits assumed): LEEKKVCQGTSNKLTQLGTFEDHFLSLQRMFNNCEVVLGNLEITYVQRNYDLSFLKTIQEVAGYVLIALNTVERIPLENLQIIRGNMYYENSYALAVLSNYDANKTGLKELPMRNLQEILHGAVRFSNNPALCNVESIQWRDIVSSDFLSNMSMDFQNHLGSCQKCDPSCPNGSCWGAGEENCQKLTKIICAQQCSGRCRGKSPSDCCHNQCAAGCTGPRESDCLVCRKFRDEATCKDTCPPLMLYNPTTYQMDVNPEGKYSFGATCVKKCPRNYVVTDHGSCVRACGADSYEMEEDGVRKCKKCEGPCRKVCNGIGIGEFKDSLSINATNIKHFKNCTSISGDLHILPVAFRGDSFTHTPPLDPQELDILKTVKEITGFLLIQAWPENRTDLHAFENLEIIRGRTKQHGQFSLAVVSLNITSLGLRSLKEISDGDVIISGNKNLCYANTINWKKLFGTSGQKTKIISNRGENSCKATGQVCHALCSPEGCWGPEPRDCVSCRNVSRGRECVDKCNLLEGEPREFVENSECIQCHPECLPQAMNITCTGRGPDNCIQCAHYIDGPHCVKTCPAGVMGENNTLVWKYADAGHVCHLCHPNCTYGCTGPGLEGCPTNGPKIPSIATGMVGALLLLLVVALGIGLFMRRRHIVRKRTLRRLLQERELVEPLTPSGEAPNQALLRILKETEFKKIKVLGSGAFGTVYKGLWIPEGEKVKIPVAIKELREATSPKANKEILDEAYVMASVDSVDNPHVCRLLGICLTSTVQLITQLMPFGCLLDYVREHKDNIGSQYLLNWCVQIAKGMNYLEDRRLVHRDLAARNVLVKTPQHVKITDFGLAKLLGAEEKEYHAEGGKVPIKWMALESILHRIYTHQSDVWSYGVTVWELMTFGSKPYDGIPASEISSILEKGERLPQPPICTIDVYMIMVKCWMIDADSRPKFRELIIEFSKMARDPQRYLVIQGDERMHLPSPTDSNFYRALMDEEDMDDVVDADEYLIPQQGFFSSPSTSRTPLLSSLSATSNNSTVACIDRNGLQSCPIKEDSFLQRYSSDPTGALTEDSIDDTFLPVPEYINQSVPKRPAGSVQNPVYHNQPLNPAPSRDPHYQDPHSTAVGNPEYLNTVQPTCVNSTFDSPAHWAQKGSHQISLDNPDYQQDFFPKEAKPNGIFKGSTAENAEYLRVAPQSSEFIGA
Chain of Bub1 (O43683 704-1085): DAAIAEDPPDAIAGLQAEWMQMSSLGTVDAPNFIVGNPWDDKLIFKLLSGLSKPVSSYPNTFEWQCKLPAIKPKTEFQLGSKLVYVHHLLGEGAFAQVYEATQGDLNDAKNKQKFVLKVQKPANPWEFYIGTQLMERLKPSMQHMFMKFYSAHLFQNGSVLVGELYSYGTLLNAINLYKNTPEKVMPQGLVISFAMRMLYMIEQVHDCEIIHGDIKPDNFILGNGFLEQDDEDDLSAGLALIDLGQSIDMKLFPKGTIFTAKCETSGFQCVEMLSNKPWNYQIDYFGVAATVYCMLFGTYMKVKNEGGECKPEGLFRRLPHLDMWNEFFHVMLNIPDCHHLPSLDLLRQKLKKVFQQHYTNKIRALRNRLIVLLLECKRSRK

For the compound `COCCOc1cnccc1-c1[nH]c2c(c1Nc1ccccc1OC)C(=O)NCC2` [Example 13, 2-[3-(2-methoxyethoxy)pyridin-4-yl]-3-[(2-methoxyphenyl)amino]-1,5,6,7-tetrahydro-4H-pyrrolo[3,2-c]pyridin-4-one], the pIC50 in experiment [1] (setting [3]) was 8.36; in experiment [1] (setting [4]), 8.36; on Bub1, 6.46; in the experiment on Ba/F3-EGFR-insSVD cells (Mus musculus, BaF3, 48 h), 6.09; in the experiment with Ba/F3-EGFR-WT cells (Mus musculus, BaF3, 48 h), 5.40. The “EGFR ins ASV IC50 [mol] (mean)” value in experiment [2] came out at 3.89e-08 mol.
On to `COC(C)(C)COc1cnccc1-c1[nH]c2c(c1Nc1cccc(F)c1OC(F)F)C(=O)NCC2` [Example 19, 3-{[2-(difluoromethoxy)-3-fluorophenyl]amino}-2-[3-(2-methoxy-2-methylpropoxy)pyridin-4-yl]-1,5,6,7-tetrahydro-4H-pyrrolo[3,2-c]pyridin-4-one], for which the pIC50 was 9.81 in experiment [1] (setting [3]); 9.83 in experiment [1] (setting [4]); 6.83 at Bub1; 7.40 in the experiment with Ba/F3-EGFR-insSVD cells (48 h); 6.06 with Ba/F3-EGFR-WT cells (48 h). In experiment [2], the “EGFR ins ASV IC50 [mol] (mean)” value was found to be 2.39e-10 mol.
For `COC(C)(C)COc1cnccc1-c1[nH]c2c(c1Nc1cccc(F)c1CC(F)F)C(=O)NCC2` [Example 23, 3-{[2-(2,2-difluoroethyl)-3-fluorophenyl]amino}-2-[3-(2-methoxy-2-methylpropoxy)pyridin-4-yl]-1,5,6,7-tetrahydro-4H-pyrrolo[3,2-c]pyridin-4-one], the pIC50 in experiment [1] (setting [3]) is 9.59; in experiment [1] (setting [4]), 9.72; at Bub1 it was 7.17; in the experiment with Ba/F3-EGFR-insSVD cells (Mus musculus, BaF3, 48 h) it was 7.48; in the experiment on Ba/F3-EGFR-WT cells (Mus musculus, BaF3, 48 h), 6.41. The “EGFR ins ASV IC50 [mol] (mean)” value in experiment [2] worked out at 3.42e-10 mol.
Regarding `CCOc1c(F)cccc1Nc1c(-c2ccncc2OCC(C)(C)OC)[nH]c2c1C(=O)NCC2` [Example 26, 3-[(2-ethoxy-3-fluorophenyl)amino]-2-[3-(2-methoxy-2-methylpropoxy)pyridin-4-yl]-1,5,6,7-tetrahydro-4H-pyrrolo[3,2-c]pyridin-4-one], the pIC50 in experiment [1] (setting [3]) is 9.57; in experiment [1] (setting [4]), 9.38; at Bub1 it was 7.07; with Ba/F3-EGFR-insSVD cells (Mus musculus, BaF3, 48 h), 6.21; in the experiment with Ba/F3-EGFR-WT cells (Mus musculus, BaF3, 48 h), 5.70. In addition, in experiment [2], the “EGFR ins ASV IC50 [mol] (mean)” value is 9.43e-10 mol.
